US4746737A, “Phenyl guanidinobenzoate derivatives which have protease inhibitory activity” (Kowa Co., Ltd., priority 1985, dated 1988)
Where a name gives a salt, the structure may show the parent alone.

Columns and labels:
trypsin = biological target: T1, trypsin (Bos taurus, UniProt P00760); test: Trypsin inhibitory activity; assay type: biochemical; conditions: pH 8.0, 37° C., substrate Boc-Phe-Ser-Arg-MCA; read-out: Concentration for 50% inhibition, trypsin
T1 sequence (P00760 24-246): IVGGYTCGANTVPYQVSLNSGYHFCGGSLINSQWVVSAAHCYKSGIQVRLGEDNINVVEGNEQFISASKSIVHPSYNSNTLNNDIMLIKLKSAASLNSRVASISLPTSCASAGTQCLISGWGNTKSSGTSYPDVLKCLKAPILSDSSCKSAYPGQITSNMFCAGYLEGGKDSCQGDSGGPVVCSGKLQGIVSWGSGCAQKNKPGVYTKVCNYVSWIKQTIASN
Experimental: To 0.1 ml of a dimethylsulfoxide solution of a compound to be tested were added 0.3 ml of a 0.1M trishydrochloric acid buffer solution (pH 8.0) containing 10 mM of calcium chloride and 0.1 ml of a solution of 50 ng/ml of trypsin dissolved in the buffer solution, followed by incubation at 37° C. and 10 minutes. Thereafter, 5 microliters of a dimethylformamide solution of 10 mM Boc-Phe-Ser-Arg-MCA, followed by reaction at 37° C. for 30 minutes and addition of 0.5 ml of a 10% acetic acid solution to stop the reaction. The fluorecence of produced 7-amino-4-methylcumarin was measured by the use of a fluorometer (Fluorometer 650-40, by Hitachi Ltd.) under conditions of an excitation wavelength of 380 nm, a wavelength of the fluorescence of 460 nm and a slit width of 2 mm.
The inhibition rate of the respective compounds to be tested was calculated according to the following equation. [formula] in which T represents a measured value of "test specimen+enzyme+substrate", E represents a measured value of "enzyme+substrate", and S represents a measured value of "substrate".

thrombin = thrombin (Homo sapiens, UniProt P00734); test: Thrombin inhibitory activity; assay type: biochemical; conditions: pH 7.4, 37° C., substrate Boc-Val-Pro-Arg-MCA; read-out: Concentration for 50% inhibition, thrombin
Experimental: To 0.1 ml of a dimethylsulfoxide solution of each of compounds to be tested were added 0.3 ml of a 0.1M phosphate buffer solution (pH 7.4) and 0.1 ml of a thrombin solution containing 100 mu/ml of thrombin in the buffer solution, followed by incubation at 37° C. for 10 minutes. To the solution was added […] of dimethylformamide solution of 10 mM Boc-Val-Pro-Arg-MCA for reaction at 37° C. for 30 minutes. Thereafter, the inhibition rate was calculated similar to the case of trypsin.

rat's blood = test: Anticoagulant activity (blood coagulation time by thrombelastograph); conditions: compound 1×10^-4 M, thrombelastogram
Experimental: A compound to be tested was dissolved into a physiological saline solution so as to have the final concentration of 1×10^-4 M and then cooled down by ice. A 0.05 ml of the thus prepared solution was added with 0.5 ml of rat's blood, followed by subjecting the obtained solution to a thrombelastograph (manufactured by Hellige Company). The blood coagulation time (r+k value) was determined by the obtained thrombelastogram.

[1] = Acute toxicity (LD50), intravenous administration to mice; conditions: mouse, in vivo
Solubility = assay type: physicochemical; conditions: pH 3.57

| SMILES | IC50 (trypsin) [nM] | IC50 (thrombin) [nM] | Blood coagulation time (r+k value) (rat's blood) [min] | LD50 [1] [mg/kg] | solubility (Solubility) [mg/mL] |
| --- | --- | --- | --- | --- | --- |
| N=C(N)Nc1ccc(C(=O)Oc2ccc(C(=O)N3CCN(CC(N)=O)CC3)cc2)cc1 [Example 2, 4-[4-(carbamoylmethyl)piperazinocarbonyl]phenyl 4-guanidinobenzoate.dihydrochloride] | 20 | 200 | 26.7 ± 3.3 | 150 to 200 | > 100 |
| N=C(N)Nc1ccc(C(=O)Oc2ccc(C(=O)N3CCN(CC(=O)N4CCOCC4)CC3)cc2)cc1 [Example 6, 4-[4-(Morpholynocarbonylmethyl)piperazinocarbonyl]phenyl 4-guanidinobenzoate.dihydrochloride] | 6 | 400 | 15.3 ± 3.1 | 150 to 200 |  |
| N=C(N)Nc1ccc(C(=O)Oc2ccc(C(=O)N3CCN(CC(=O)N4CCCC4)CC3)cc2)cc1 [Example 7, 4-[4-(Pyrrolidinocarbonylmethyl)piperazino-carbonyl]phenyl 4-guanidinobenzoate.dihydrochloride] | 7 | 400 | 9.7 ± 0.3 | 100 to 150 |  |
| CC(C)NC(=O)CN1CCN(C(=O)c2ccc(OC(=O)c3ccc(NC(=N)N)cc3)cc2)CC1 [Example 9, 4-[4-(Isopropylcarbamoylmethyl)piperazinocarbonyl]phenyl 4-guanidinobenzoate.dihydrochloride] | 10 | 400 | 18.5 | 150 to 200 |  |
| CCOC(=O)CN1CCN(C(=O)c2ccc(OC(=O)c3ccc(NC(=N)N)cc3)cc2)CC1 [Example 10, 4-[4-(Ethoxycarbonylmethyl)piperazinocarbonyl]phenyl 4-guanidinobenzoate.dihydrochloride] | 20 | 400 | 10 | 150 to 200 |  |
| COc1cc(C(=O)N2CCN(C(C)C)CC2)cc(OC)c1OC(=O)c1ccc(NC(=N)N)cc1 [Example 11, 4-(4-Isopropylpiperazinocarbonyl)-3,5-dimethoxyphenyl 4-gunanidinobenzoate.dihydrochloride] | 400 |  |  | 50 to 100 |  |
| N=C(N)Nc1ccc(C(=O)Oc2ccc(C(=O)N3CCN(CC(=O)N4CCCCC4)CC3)cc2)cc1 [Example 12, 4-[4-(Piperidinocarbonylmethyl)piperazinocarbonyl]phenyl 4-guanidinobenzoate.dihydrochloride] | 10 |  | 14.5 | 100 to 150 |  |
| CC(C)N1CCN(C(=O)c2ccc(OC(=O)c3ccc(NC(=N)N)cc3)cc2)CC1 [Example 13, 4-(4-Isopropylpiperazinocarbonyl)phenyl 4-guanidinobenzoate.dihydrochloride] | 20 |  | 21 ± 3.9 | 50 to 100 |  |
| CC(C(=O)NCCN(C)C)N1CCN(C(=O)c2ccc(OC(=O)c3ccc(NC(=N)N)cc3)cc2)CC1 (centres unmarked) [Example 22, 4-[4-[1-(2-Dimethylaminoethylcarbamoyl)ethyl]piperazinocarbonyl]phenyl 4-guanidinobenzoate.trihydrochloride] | 40 |  | 20.5 ± 0.8 |  |  |
| N=C(N)Nc1ccc(C(=O)Oc2ccc(C(=O)N3CCN(CCNC(=O)OCc4ccccc4)CC3)cc2)cc1 [Example 25, 4-[4-(2-Benzyloxycarbonylaminoethyl)piperazinocarbonyl]phenyl 4-guanidinobenzoate.dihydrochloride] | 20 |  | 18.8 ± 1.2 |  |  |
| N=C(N)Nc1ccc(C(=O)Oc2ccc(C(=O)N3CCN(CC(=O)O)CC3)cc2)cc1 [Example 27, 4-[4-(Guanidinobenzoyloxy)benzoyl]piperazino-acetic acid:dihydrochloride] | 40 |  | 19.2 ± 2.3 |  |  |
| N=C(N)Nc1ccc(C(=O)Oc2ccc(C(=O)N3CCNCC3)cc2)cc1 [Example 29, 4-Piperazinocarbonylphenyl 4-guanidinobenzoate.dihydrochloride] | 30 |  | 34.8 ± 5.5 |  |  |
| CN1CCN(C(=O)c2ccc(OC(=O)c3ccc(NC(=N)N)cc3)cc2)CC1 [Example 30, 4-(4-Methylpiperazinocarbonyl)phenyl 4-guanidinobenzoate.dihydrochloride] | 30 |  | 16.5 ± 1.6 |  |  |
| N=C(N)Nc1ccc(C(=O)Oc2ccc(C(=O)N3CCCN(CC(N)=O)CC3)cc2)cc1 [Example 33, 4-(4-Carbamoylmethylhomopiperazinocarbonyl)phenyl 4-guanidinobenzoate.dihydrochloride] | 20 |  | 32 ± 2.5 |  |  |
| CN(C)CCNC(=O)c1ccc(OC(=O)c2ccc(NC(=N)N)cc2)cc1 [Example 34, 4-(N,N-Dimethylethylenediaminocarbonyl)phenyl 4-guanidinobenzoate.dihydrochloride] | 10 |  | 41.3 ± 3.9 |  |  |
| CN(C)CCN(C)C(=O)c1ccc(OC(=O)c2ccc(NC(=N)N)cc2)cc1 [Example 37, 4-(N,N,N'-Trimethylethylenediaminocarbonyl)phenyl 4-guanidinobenzoate.dihydrochloride] | 40 |  | 46.5 ± 4.5 |  |  |
| CN(CCN(C)C(=O)c1ccc(OC(=O)c2ccc(NC(=N)N)cc2)cc1)CC(N)=O [Example 38, 4-[(N-Carbamoylmethyl-N,N'-dimethylethylenediamino)carbonyl]phenyl 4-guanidinobenzoate.dihydrochloride] | 30 |  | 34.2 ± 1.6 |  |  |
| CN(C)C(=O)COC(=O)Cc1ccc(OC(=O)c2ccc(NC(=N)N)cc2)cc1 [Reference compound A, reference compound] | 50 |  | 9.8 ± 0.6 | 280 |  |
| CCOC(=O)c1ccc(OC(=O)CCCCCNC(=N)N)cc1 [Reference compound B, reference compound] | 400 |  | 9.8 ± 1.6 | 313 |  |
